Data from US12458580B2, “Body ink compositions and applicators” (Inkbox Ink Inc., priority 2015, dated 2025).
In brackets after ≈: the same amount, converted by molar mass.

Key:
human skin = test: staining (inking) of skin; assay type: in vivo; conditions: liquid form, dissolved genipin
Description: In liquid form, the composition consists of at least a solvent and dissolved genipin in an amount in the range of 10 mM to 200 mM (millimolar), with a preference towards the upper end of this range. […] The ultimate upper limit of 200 mM is the amount where the tattoo applicator becomes too stiff and ultimately impractical to use. The solvent may be pure water, or alternatively buffered water. It has been discovered that maintaining an optimal pH of 7.4 produces the highest degree of effectiveness. Use of a buffer allows such a pH to be accurately maintained at the optimal level of 7.4. However, for efficacy pure water may be used instead of buffered water. The pH of water is 7.0, which reasonably approximates the determined optimal pH, and is within a range of pH values which lead to preferred results. In a preferred embodiment, isopropyl alcohol or ethyl alcohol is added to the formulation to provide enhanced drying capabilities and increased genipin solubility. Generally, the use of water as the solvent is preferred over other possible solvents because certain steps in the inking or staining reaction depend on water as a catalyst. […] Water has a viscosity of 1 centipoise (cP), which is a very low level and one that has been determined to be preferred for the composition of the invention. […]

[1] = solubility limit of genipin in the liquid composition; assay type: physicochemical; conditions: liquid composition: solvent with dissolved genipin; liquid form, solvent water or buffered water
Description: In liquid form, the composition consists of at least a solvent and dissolved genipin in an amount in the range of 10 mM to 200 mM (millimolar), with a preference towards the upper end of this range. […] The ultimate upper limit of 200 mM is the amount where the tattoo applicator becomes too stiff and ultimately impractical to use. The solvent may be pure water, or alternatively buffered water. It has been discovered that maintaining an optimal pH of 7.4 produces the highest degree of effectiveness. Use of a buffer allows such a pH to be accurately maintained at the optimal level of 7.4. However, for efficacy pure water may be used instead of buffered water. The pH of water is 7.0, which reasonably approximates the determined optimal pH, and is within a range of pH values which lead to preferred results. In a preferred embodiment, isopropyl alcohol or ethyl alcohol is added to the formulation to provide enhanced drying capabilities and increased genipin solubility.

[2] = at basic pH; cited from earlier work
cells = conditions: cited from earlier work

**Q.** Which “minimum concentration required for staining to take effect” value (human skin) does the source give for COC(=O)C1=CO[C@@H](O)[C@@H]2C(CO)=CC[C@H]12 [genipin] here?
**A.** 10 mM

**Q.** And the solubility [1]?
**A.** 95 mM (≈ 21.5 mg/mL)

**Q.** What about the stability in solution [2] of the same compound?
**A.** unstable and undergoes self-polymerization

**Q.** What about the “cytotoxicity (harmfulness to cells)” value (cells) of the same compound?
**A.** low cytotoxicity
